Test results: ChEMBL document CHEMBL4627335, “Lead discovery, chemical optimization, and biological evaluation studies of novel histone methyltransferase SET7 small-molecule inhibitors” (Bioorg Med Chem Lett, 2020)
The source made the active and inactive calls. The rule behind the calls is not given here.

Experiments:
[1] = target: T1, Histone-lysine N-methyltransferase SETD7 (Homo sapiens, UniProt Q8WTS6); assay: Inhibition of SET7 (unknown origin) using biotinylated histone polypeptide as substrate in presence of SAM by AlphaLISA assay
T1 sequence (Q8WTS6 whole entry): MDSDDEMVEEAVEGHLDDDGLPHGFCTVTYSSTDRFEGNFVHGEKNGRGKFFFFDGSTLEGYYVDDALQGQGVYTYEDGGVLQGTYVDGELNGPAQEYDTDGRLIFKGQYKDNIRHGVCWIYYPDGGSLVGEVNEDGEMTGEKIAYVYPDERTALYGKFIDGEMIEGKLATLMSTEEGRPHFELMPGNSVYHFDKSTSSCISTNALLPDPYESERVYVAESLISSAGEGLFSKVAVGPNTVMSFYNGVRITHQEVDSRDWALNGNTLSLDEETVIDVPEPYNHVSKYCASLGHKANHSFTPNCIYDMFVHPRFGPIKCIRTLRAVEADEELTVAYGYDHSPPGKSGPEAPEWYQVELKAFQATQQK

[2] = target: T1, Histone-lysine N-methyltransferase SETD7; assay: Binding affinity to SET7 (unknown origin) by SPR analysis
[3] = target: T2, Histone-lysine N-methyltransferase SUV39H1 (Homo sapiens) (UniProt O43463); assay: Inhibition of SUV39H1 (unknown origin) at 100 uM
T2 sequence (whole entry): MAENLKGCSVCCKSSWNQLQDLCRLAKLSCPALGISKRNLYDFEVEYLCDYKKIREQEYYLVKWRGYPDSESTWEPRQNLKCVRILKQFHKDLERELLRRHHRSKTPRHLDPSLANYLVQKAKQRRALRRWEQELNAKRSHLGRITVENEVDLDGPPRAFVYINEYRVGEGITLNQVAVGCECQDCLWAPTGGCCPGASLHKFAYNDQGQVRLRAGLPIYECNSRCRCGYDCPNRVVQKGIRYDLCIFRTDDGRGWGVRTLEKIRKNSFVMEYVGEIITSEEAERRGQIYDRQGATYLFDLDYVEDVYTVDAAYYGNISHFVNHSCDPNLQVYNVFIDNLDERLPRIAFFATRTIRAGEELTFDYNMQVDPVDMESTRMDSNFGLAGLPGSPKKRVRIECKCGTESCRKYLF

[4] = target: T3, Histone-lysine N-methyltransferase EHMT2 (Homo sapiens) (UniProt Q96KQ7); assay: Inhibition of G9a (unknown origin) at 100 uM
T3 sequence (whole entry): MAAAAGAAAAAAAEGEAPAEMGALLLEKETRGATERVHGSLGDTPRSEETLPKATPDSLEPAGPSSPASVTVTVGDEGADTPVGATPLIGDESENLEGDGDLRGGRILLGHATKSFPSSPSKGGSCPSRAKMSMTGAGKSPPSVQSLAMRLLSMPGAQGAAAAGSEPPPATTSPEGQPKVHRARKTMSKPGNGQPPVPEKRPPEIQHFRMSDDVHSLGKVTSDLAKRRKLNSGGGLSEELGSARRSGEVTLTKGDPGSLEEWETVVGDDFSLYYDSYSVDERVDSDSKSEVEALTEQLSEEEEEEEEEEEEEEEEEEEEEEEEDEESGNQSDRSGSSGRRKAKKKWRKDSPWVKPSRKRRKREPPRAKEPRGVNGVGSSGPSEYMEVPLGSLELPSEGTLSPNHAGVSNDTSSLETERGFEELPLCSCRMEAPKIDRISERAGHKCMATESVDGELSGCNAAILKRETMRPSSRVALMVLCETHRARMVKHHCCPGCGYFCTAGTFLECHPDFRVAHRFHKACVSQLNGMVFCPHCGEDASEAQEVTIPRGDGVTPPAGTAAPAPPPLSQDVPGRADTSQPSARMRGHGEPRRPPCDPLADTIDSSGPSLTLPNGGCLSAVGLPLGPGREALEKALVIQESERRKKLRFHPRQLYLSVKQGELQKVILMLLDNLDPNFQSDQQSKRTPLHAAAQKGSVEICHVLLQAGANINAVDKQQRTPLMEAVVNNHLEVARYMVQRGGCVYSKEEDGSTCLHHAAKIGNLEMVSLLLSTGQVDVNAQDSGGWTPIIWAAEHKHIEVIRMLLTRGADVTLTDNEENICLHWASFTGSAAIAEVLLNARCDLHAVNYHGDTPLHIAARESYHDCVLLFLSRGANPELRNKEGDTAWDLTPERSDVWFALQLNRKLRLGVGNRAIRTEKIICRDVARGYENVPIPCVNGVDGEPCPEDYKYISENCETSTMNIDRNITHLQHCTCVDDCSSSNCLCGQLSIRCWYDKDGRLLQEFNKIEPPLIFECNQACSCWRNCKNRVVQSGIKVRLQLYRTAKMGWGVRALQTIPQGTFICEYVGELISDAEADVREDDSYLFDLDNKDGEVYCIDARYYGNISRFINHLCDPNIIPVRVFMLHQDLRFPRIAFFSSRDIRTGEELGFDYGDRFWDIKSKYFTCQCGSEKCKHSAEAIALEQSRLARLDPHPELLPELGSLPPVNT

[5] = target: Histone-lysine N-methyltransferase, H3 lysine-36 specific (Homo sapiens) (UniProt Q96L73); assay: Inhibition of NSD1 (unknown origin) at 100 uM
Chain of Histone-lysine N-methyltransferase, H3 lysine-36 specific (Homo sapiens) (Q96L73 whole entry): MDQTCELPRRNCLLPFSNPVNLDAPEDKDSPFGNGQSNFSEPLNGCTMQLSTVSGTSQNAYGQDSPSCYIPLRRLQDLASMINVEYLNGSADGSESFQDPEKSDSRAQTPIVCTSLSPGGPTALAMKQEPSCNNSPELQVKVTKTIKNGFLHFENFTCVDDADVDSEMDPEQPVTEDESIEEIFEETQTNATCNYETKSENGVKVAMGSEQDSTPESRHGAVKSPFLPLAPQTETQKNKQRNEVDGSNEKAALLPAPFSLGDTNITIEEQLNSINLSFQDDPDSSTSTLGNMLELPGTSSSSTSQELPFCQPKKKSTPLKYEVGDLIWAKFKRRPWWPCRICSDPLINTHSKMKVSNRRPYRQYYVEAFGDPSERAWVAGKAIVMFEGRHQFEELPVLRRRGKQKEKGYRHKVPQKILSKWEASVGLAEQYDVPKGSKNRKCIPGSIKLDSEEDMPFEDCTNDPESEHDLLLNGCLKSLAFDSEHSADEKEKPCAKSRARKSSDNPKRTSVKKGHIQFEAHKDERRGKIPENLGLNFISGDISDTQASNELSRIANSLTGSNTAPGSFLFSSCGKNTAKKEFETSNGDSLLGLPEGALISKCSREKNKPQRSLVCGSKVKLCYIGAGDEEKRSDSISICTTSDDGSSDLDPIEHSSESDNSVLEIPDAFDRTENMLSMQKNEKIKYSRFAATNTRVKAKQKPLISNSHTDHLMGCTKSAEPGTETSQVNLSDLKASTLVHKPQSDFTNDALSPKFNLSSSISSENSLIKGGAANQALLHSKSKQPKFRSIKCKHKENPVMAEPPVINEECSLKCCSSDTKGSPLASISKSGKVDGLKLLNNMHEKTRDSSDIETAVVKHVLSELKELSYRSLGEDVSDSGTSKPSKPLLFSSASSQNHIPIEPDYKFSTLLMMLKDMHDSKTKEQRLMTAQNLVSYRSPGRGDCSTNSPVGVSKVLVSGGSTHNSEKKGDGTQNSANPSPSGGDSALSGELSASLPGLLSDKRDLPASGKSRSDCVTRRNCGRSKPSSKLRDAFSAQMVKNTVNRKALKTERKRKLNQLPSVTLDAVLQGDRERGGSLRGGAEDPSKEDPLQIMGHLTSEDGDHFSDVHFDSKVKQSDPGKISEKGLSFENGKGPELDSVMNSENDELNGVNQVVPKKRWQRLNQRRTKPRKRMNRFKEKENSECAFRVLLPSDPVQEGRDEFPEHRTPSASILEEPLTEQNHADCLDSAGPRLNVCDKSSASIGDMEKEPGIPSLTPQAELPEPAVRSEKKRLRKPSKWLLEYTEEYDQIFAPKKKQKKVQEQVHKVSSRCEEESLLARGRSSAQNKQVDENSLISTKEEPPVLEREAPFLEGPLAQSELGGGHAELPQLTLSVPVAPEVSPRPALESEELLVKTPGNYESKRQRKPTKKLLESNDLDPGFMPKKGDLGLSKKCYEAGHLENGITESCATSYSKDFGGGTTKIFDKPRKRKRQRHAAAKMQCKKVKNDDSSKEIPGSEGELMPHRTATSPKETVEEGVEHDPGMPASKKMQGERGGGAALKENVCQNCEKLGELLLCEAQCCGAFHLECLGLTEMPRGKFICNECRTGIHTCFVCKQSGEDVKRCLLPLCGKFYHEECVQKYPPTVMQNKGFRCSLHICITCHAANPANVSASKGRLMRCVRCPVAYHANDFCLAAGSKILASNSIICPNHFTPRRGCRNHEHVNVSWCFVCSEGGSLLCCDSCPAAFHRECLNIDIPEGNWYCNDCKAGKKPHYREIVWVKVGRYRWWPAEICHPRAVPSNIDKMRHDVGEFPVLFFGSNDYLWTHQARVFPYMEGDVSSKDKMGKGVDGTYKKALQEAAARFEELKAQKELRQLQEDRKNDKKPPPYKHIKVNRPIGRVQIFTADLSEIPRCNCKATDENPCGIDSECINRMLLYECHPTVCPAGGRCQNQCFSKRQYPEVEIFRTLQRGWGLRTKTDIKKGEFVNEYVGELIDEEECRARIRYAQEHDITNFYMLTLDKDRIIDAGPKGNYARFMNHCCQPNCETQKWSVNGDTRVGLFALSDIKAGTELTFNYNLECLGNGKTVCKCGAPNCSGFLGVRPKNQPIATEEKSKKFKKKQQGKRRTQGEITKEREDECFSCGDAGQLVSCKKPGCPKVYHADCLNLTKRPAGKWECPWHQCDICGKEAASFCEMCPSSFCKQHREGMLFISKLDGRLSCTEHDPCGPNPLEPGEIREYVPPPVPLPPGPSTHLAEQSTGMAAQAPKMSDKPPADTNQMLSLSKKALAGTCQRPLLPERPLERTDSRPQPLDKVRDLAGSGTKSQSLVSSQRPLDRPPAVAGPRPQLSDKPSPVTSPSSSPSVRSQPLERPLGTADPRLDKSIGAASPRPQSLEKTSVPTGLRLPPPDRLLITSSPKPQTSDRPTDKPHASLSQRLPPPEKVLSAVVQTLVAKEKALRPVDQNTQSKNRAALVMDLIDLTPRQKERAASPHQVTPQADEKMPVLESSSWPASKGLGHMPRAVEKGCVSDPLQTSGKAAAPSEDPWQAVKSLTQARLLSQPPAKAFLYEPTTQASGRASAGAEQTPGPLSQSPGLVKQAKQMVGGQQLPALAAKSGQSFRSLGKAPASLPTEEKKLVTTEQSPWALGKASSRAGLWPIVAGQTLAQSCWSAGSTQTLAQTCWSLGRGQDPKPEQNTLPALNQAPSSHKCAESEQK

[6] = target: Histone-lysine N-methyltransferase, H3 lysine-79 specific (Homo sapiens) (UniProt Q8TEK3); assay: Inhibition of DOT1L (unknown origin) at 100 uM
Chain of Histone-lysine N-methyltransferase, H3 lysine-79 specific (Homo sapiens) (Q8TEK3 whole entry, looked up): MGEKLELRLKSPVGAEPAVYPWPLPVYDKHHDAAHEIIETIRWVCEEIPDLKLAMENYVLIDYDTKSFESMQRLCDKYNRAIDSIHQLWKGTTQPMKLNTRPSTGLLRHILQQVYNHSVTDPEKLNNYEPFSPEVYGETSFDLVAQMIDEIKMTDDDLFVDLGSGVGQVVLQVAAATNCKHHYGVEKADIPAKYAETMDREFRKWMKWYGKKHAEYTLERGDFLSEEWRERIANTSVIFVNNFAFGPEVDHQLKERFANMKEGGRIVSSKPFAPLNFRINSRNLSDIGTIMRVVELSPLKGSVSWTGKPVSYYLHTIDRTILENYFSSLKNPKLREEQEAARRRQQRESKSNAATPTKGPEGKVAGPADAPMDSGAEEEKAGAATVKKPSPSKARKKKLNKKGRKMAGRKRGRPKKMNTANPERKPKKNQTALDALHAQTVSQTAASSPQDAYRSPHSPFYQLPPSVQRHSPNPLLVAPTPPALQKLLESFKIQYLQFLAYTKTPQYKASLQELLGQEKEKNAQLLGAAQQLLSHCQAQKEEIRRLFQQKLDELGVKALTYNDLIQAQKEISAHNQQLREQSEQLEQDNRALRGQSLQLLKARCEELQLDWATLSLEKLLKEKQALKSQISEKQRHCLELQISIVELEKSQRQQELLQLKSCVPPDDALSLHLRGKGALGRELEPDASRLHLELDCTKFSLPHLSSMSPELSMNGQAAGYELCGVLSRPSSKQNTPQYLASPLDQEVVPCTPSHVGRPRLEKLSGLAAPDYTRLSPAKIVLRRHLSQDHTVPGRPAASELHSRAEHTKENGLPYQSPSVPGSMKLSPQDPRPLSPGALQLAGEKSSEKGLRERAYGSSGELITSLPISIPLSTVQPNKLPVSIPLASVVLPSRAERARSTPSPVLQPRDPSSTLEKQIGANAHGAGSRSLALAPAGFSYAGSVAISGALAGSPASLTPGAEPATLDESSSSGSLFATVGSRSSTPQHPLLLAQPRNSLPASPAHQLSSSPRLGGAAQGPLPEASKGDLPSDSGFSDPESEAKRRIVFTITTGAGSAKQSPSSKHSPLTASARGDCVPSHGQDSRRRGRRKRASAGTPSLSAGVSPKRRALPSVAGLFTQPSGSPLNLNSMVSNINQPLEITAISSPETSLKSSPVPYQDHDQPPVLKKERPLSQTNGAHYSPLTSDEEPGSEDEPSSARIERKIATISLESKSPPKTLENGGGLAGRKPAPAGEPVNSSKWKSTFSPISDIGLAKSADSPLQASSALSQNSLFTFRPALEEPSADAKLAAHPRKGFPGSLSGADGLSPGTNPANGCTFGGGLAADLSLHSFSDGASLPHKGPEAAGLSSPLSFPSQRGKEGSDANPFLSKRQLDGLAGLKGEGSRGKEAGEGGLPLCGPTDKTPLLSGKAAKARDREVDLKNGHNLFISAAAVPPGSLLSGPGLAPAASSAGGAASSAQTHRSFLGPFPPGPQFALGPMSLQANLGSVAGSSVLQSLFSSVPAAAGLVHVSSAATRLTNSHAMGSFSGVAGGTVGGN

[7] = target: T4, Histone acetyltransferase KAT8 (Homo sapiens) (UniProt Q9H7Z6); assay: Inhibition of MOF (unknown origin) at 100 uM
T4 sequence (whole entry): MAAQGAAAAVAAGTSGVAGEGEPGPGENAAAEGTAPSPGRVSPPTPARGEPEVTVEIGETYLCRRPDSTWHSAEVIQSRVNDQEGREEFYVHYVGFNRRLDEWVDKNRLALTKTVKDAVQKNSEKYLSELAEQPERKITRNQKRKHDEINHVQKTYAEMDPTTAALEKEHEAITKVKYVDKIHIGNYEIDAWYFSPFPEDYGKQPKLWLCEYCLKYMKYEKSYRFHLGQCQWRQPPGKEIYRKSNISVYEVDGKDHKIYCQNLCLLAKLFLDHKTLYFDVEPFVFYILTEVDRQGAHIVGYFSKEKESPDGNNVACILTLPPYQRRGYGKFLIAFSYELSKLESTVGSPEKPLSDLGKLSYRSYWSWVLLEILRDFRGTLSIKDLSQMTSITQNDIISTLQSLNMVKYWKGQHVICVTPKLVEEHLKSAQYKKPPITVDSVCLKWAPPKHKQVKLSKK

[8] = target: T5, Histone-lysine N-methyltransferase SETD7 (Homo sapiens) (UniProt Q8WTS6); assay: Inhibition of SET7 (unknown origin) at 100 uM
T5 sequence (whole entry): T1 sequence (Q8WTS6 whole entry)

MCF7 = assay: Antiproliferative activity against human MCF7 cells expresses endogenous ER by Cell Titer-Glo based luminescence assay
MRC5 = assay: Cytotoxicity against human MRC5 cells assessed as reduction in cell viability by Cell Titer-Glo based luminescence assay
HUVEC = assay: Cytotoxicity against HUVEC assessed as reduction in cell viability by Cell Titer-Glo based luminescence assay; conditions: human
[9] = target: T5, Histone-lysine N-methyltransferase SETD7 (Homo sapiens); assay: Inhibition of SET7 in human MCF7 cells assessed as reduction in ERalpha protein expression by Western blot analysis; format: cell-based

Compound	IC50 [1]	also measured
CCCCc1ccc(C2=CC(=O)C=CC2=O)cc1	> 200 µM	–
N#Cc1cccc(-c2ccc(C(=O)O)cc2)c1	> 200 µM	–
Cc1ccc(C2=CC(=O)C=CC2=O)cc1	> 200 µM	–
N#Cc1cccc(-c2ccc(C(=O)N3CCNCC3)cc2)c1	> 200 µM	–
O=C1C=CC(=O)C(c2ccc(CN3CCOCC3)c(NS(=O)(=O)c3ccc(C(F)(F)F)cc3)c2)=C1	> 200 µM	–
COc1ccc(OC)c(-c2ccc(CN3CCCC3)c(N)c2)c1	> 200 µM	–
COc1ccc(OC)c(-c2ccc(CN3CCCC3)c([N+](=O)[O-])c2)c1	> 200 µM	–
COC1=CC(=O)c2ccccc2C1=O [2-Methoxy-1,4-naphthoquinone]	> 200 µM	–
O=C1C=CC(=O)C(c2ccc(CN3CCCC3)c(NS(=O)(=O)c3ccc(C(F)(F)F)cc3)c2)=C1	> 200 µM	–
CC(C)(C)OC(=O)N1CCN(C(=O)c2ccc(-c3ccc(C#N)cc3)cc2)CC1	> 200 µM	–
COC(=O)c1ccc(C2=CC(=O)C=CC2=O)o1	15.9 µM	Kd [2]: 18 µM; inhibition [3]: inactive; inhibition [4]: inactive; inhibition [5]: inactive; inhibition [6]: inactive; inhibition [7]: inactive; inhibition [8]: Active; IC50 (MCF7): 25.8 µM; Activity (MRC5): Toxic; Activity (HUVEC): Toxic; inhibition [9]: Dose-dependent effect
COc1ccc(OC)c(-c2ccc(CN3CCN(C(=O)OC(C)(C)C)CC3)cc2)c1	> 200 µM	–
CN(C)CCNC(=O)c1ccc(-c2ccc(C#N)cc2)cc1	> 200 µM	–
O=C1C=CC(=O)C(c2cccc(C(F)(F)F)c2)=C1	> 200 µM	–
CC(C)(C)OC(=O)N1CCN(C(=O)c2ccc(-c3cccc(C#N)c3)cc2)CC1	> 200 µM	–
O=C1C=CC(=O)C(c2ccc(Br)cc2)=C1	> 200 µM	–
N#Cc1ccc(-c2ccc(C(=O)O)cc2)cc1	> 200 µM	–
COc1ccc(OC)c(-c2ccc(CN3CCOCC3)c(NS(=O)(=O)c3ccccc3)c2)c1	> 200 µM	–
Cc1ccc(C2=CC(=O)C=CC2=O)cc1C	> 200 µM	–
CC(C)c1ccc(C2=CC(=O)C=CC2=O)cc1	> 200 µM	–
O=C1C=C(O)C(=O)c2ccccc21 [LAWSONE]	> 200 µM	–
CN(C)CCNC(=O)c1ccc(-c2cccc(C#N)c2)cc1	> 200 µM	–
O=C1C=CC(=O)C(c2ccc(CN3CCOCC3)c(NS(=O)(=O)c3ccc(Cl)cc3)c2)=C1	> 200 µM	–
O=C1C=CC(=O)C(c2ccc(CN3CCOCC3)c(NS(=O)(=O)c3ccc([N+](=O)[O-])cc3)c2)=C1	> 200 µM	–
COc1ccc(OC)c(-c2ccc(CN3CCCC3)c(NS(=O)(=O)c3ccccc3)c2)c1	> 200 µM	–
COc1ccc(OC)c(-c2ccc(CN3CCN(C(=O)OC(C)(C)C)CC3)c(N)c2)c1	> 200 µM	–
